IC50 data for 31 compounds are collected here from patent US8153631B2, “Triazole compounds and uses related thereto” (Amgen Inc., priority 2003, dated 2012).

T1 sequence (P28845 whole entry): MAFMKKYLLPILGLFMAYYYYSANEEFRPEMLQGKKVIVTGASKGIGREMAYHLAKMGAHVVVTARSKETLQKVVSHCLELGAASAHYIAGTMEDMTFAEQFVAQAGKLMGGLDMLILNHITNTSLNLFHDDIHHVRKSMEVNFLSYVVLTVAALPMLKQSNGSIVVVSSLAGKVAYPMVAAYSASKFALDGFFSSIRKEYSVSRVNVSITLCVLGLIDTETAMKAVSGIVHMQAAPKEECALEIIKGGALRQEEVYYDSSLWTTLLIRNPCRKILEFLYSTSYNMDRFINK

The assay concerns the target T1, human HSD1 (recombinant HSD1) (Homo sapiens, UniProt P28845).
T1 construct: made in house
As to the kind of experiment: In vitro HSD1 activity inhibitory action, SPA of cortisone to cortisol conversion. Type of assay: biochemical. Particulars: recombinant human HSD1 0.1 μg/ml, 500 μM NADPH, 16 nM 3H cortisone, room temperature 90 min, read-out: hHSD1 IC50. The method, boiled down:
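Baculovirus-expressed recombinant HSD1 (0.1 μg/ml) with 500 μM NADPH and 16 nM ³H-cortisone in 0.1% BSA/PBS, 90 min at room temperature. Stopped with anti-cortisol antibody, SPA beads and carbenoxolone, read after overnight incubation. Inhibition scaled between DMSO (0%) and 50 μM carbenoxolone (100%); IC50 by curve fitting.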
As a reminder, the IC50 is the concentration that gives 50% inhibition. As for `Cn1c(N2CCC(Oc3ccc(Cl)c(C(=O)O)c3)CC2)nnc1C1(c2ccccc2)CC1` [Ex. 2-64], the IC50 lay within 10 to 1000 nM.
The result for `CC(C)C1CCN(c2nnc(C3(c4ccccc4)CC3)n2C)CC1` [Ex. 2-65] reads less than 10 nM; that for `Cn1c(N2CCC(Oc3ccc(Cl)c(C(N)=O)c3)CC2)nnc1C1(c2ccccc2)CC1` [Ex. 2-66], 10 to 1000 nM; that for `COC(=O)C1(C)CCN(c2nnc(C3(c4ccccc4)CC3)n2C)CC1` [Ex. 2-67], less than 10 nM.
Take `Cn1c(N2CCC(C)(CO)CC2)nnc1C1(c2ccccc2)CC1` [Ex. 2-68]: the IC50 was less than 10 nM.
The result for `Cn1c(N2CCC(C)(C(=O)O)CC2)nnc1C1(c2ccccc2)CC1` [Ex. 2-69] reads 10 to 1000 nM; that for `Cn1c(N2CCC(C)(C(N)=O)CC2)nnc1C1(c2ccccc2)CC1` [Ex. 2-70], less than 10 nM.
Take `CCCn1c(N2CCC(Oc3ncc(Cl)cc3Cl)CC2)nnc1C1(c2ccccc2)CC1` [Ex. 2-71]: the IC50 was 10 to 1000 nM.
Take `COCCn1c(N2CCC(Oc3ncc(Cl)cc3Cl)CC2)nnc1C1(c2ccccc2)CC1` [Ex. 2-72]: the IC50 lay in the range of 10 to 1000 nM.
The figure for `Cn1c(N2CCC(Oc3ccc(Cl)cc3Cl)CC2)nnc1C1(c2ccccc2)CC1` [Ex. 2-73] is less than 10 nM.
As for `C=CCn1c(N2CCC(Oc3ncc(Cl)cc3Cl)CC2)nnc1C1(c2ccccc2)CC1` [Ex. 2-75], the 50% inhibitory concentration (IC50) is less than 10 nM.
The figure for `Clc1cnc(OC2CCN(c3nnc(C4(c5ccccc5)CC4)n3CC3CC3)CC2)c(Cl)c1` [Ex. 2-76] is less than 10 nM; for `CC(C)Cn1c(N2CCC(Oc3ncc(Cl)cc3Cl)CC2)nnc1C1(c2ccccc2)CC1` [Ex. 2-77] it is 10 to 1000 nM; for `Clc1cnc(OC2CCN(c3nnc(C4(c5ccccc5)CC4)n3C3CC3)CC2)c(Cl)c1` [Ex. 2-78] it is less than 10 nM.
The figure for `CCn1c(N2CCC(Oc3ncc(Cl)cc3Cl)CC2)nnc1C1(c2ccccc2)CC1` [Ex. 2-79] is less than 10 nM.
For the compound `CC(C)n1c(N2CCC(Oc3ncc(Cl)cc3Cl)CC2)nnc1C1(c2ccccc2)CC1` [Ex. 2-80], the IC50 was less than 10 nM.
The figure for `Cn1c(N2CCC(Oc3ncc(Cl)cc3Cl)CC2)nnc1C1(c2ccccc2)CCCC1` [Ex. 2-81] is less than 10 nM; for `Cc1ccc(C2(c3nnc(N4CCC(Oc5ncc(Cl)cc5Cl)CC4)n3C)CC2)cc1` [Ex. 2-82] it is 10 to 1000 nM.
The figure for `COc1ccc(C2(c3nnc(N4CCC(Oc5ncc(Cl)cc5Cl)CC4)n3C)CC2)cc1` [Ex. 2-83] is 10 to 1000 nM; for `Cn1c(N2CCN(Cc3ccc(Cl)cc3Cl)CC2)nnc1C1(c2ccccc2)CC1` [Ex. 2-84] it is 10 to 1000 nM; for `Cn1c(N2CCN(c3ccccc3Cl)CC2)nnc1C1(c2ccccc2)CC1` [Ex. 2-85] it is less than 10 nM.
Take `Cn1c(N2CCC(Oc3c(Cl)cncc3Cl)CC2)nnc1C1(c2ccccc2)CC1` [Ex. 2-86]: the IC50 was in the range of 10 to 1000 nM.
In the case of `Cn1c(N2CCC(Oc3ncc(Cl)cc3Cl)CC2)nnc1C1(c2ccc(Cl)cc2Cl)CC1` [Ex. 2-88], the 50% inhibitory concentration (IC50) lay in the range of 10 to 1000 nM.
Take `Cn1c(N2CCN(c3ccc(F)cc3)CC2)nnc1C1(c2ccccc2)CC1` [Ex. 2-89]: the IC50 is 10 to 1000 nM.
The result for `Cn1c(N2CCN(c3ccc(Cl)cc3)CC2)nnc1C1(c2ccccc2)CC1` [Ex. 2-90] reads 10 to 1000 nM.
The figure for `Cn1c(N2Cc3ccccc3C2)nnc1C1(c2ccccc2)CC1` [Ex. 2-91] is less than 10 nM.
The result for `CCN(Cc1ccccc1)c1nnc(C2(c3ccccc3)CC2)n1C` [Ex. 2-92] reads less than 10 nM; that for `CN(c1ccccc1)c1nnc(C2(c3ccccc3)CC2)n1C` [Ex. 2-93], less than 10 nM.
With `CN(c1ccc(Cl)cc1)c1nnc(C2(c3ccccc3)CC2)n1C` [Ex. 2-94], the concentration for half-maximal inhibition (IC50) is less than 10 nM.
On to `CN(c1ccccn1)c1nnc(C2(c3ccccc3)CC2)n1C` [Ex. 2-95], for which the concentration for half-maximal inhibition (IC50) is less than 10 nM.
With `CN(c1ccccc1)c1nnc(C2(c3ccc(F)cc3)CC2)n1C` [Ex. 2-96], the IC50 is less than 10 nM.
